The values that follow come from PubChem BioAssay (NCI).

Structures are written as SMILES.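 Growth conditions: 96-well plates. Treatment: test compound, 48 hours, 5 concentrations. Analysis: linear interpolation between bracketing concentrations; unreached endpoints set to highest concentration. At the GI50, growth is halved. Definition used: TGI = concentration required for complete inhibition of growth.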

Test systems include SNB-19 CNS; OVCAR-5 ovarian; HOP-62 NSCLC; SW-620 colon; IGROV1 ovarian; TK-10 renal; MALME-3M melanoma; COLO 205 colon; U251 CNS.
Test in all cases: NCI-60 cell line screen, 48 h

For `COC(=O)/C(C#N)=C1\CCC(O)N1` (configuration not stated), the TGI with SNB-19 CNS, with OVCAR-5 ovarian, in the experiment on HOP-62 NSCLC, in the experiment with SW-620 colon, in the experiment with IGROV1 ovarian and in the experiment on TK-10 renal was greater than 100 µM throughout. In addition, the TGI with MALME-3M melanoma, with COLO 205 colon and in the experiment on U251 CNS was greater than 100 µM in each case.
Take `CN[C@@H](C)[C@H](NC)c1ccccc1`: the TGI in the experiment with SNB-19 CNS, in the experiment on SW-620 colon, in the experiment on IGROV1 ovarian, in the experiment with TK-10 renal, with MALME-3M melanoma and in the experiment on COLO 205 colon was greater than 100 µM throughout. Further, in the experiment with U251 CNS, the TGI was greater than 100 µM.
In the case of `CCOC(=N)CC(=O)Nc1cccc(C)c1C`, the TGI in the experiment with SNB-19 CNS, in the experiment on OVCAR-5 ovarian, with HOP-62 NSCLC, with SW-620 colon, in the experiment on IGROV1 ovarian and in the experiment with TK-10 renal was greater than 100 µM in each case. Also, the TGI with MALME-3M melanoma, with COLO 205 colon and in the experiment with U251 CNS was greater than 100 µM throughout.
In the case of `CC(=O)c1sc(-c2nc(C)c(C(=O)/C=C\c3ccc(/C=C\C(=O)c4sc(-c5nc(C)c(C(C)=O)s5)nc4C)cc3)s2)nc1C`, the TGI in the experiment on SNB-19 CNS, with OVCAR-5 ovarian, in the experiment on HOP-62 NSCLC, in the experiment on SW-620 colon, in the experiment with IGROV1 ovarian and with TK-10 renal was greater than 100 µM in each case. Also, the TGI with MALME-3M melanoma, with COLO 205 colon and in the experiment on U251 CNS was greater than 100 µM each time.
For `O=C(Cc1ccccc1)NN1C(=O)C(Cl)C1c1ccc(O)cc1` (configuration not stated), the TGI in the experiment on SNB-19 CNS, in the experiment with OVCAR-5 ovarian, in the experiment on HOP-62 NSCLC, with SW-620 colon, with IGROV1 ovarian and in the experiment with TK-10 renal was greater than 100 µM in each case. Besides, the TGI in the experiment on MALME-3M melanoma, in the experiment with COLO 205 colon and in the experiment with U251 CNS was greater than 100 µM in each case.
As for `O=c1[nH]c2cc(Cl)ccc2nc1/C(=N\O)C(O)c1ccc(Cl)cc1Cl` (configuration not stated), the TGI in the experiment with SNB-19 CNS, in the experiment on OVCAR-5 ovarian, in the experiment on HOP-62 NSCLC, in the experiment with SW-620 colon, in the experiment with IGROV1 ovarian and with MALME-3M melanoma was greater than 100 µM in each case. The TGI in the experiment on COLO 205 colon and with U251 CNS was greater than 100 µM throughout.
With `O=C1Nc2c(ccc(Cl)c2I)C1=O`, the TGI was greater than 100 µM with SNB-19 CNS; 34.3 µM in the experiment with OVCAR-5 ovarian; 48.3 µM in the experiment on HOP-62 NSCLC; 45.6 µM with SW-620 colon; 30.7 µM in the experiment with IGROV1 ovarian; 99.2 µM in the experiment with TK-10 renal. In addition, the TGI in the experiment with MALME-3M melanoma was 28.3 µM; with COLO 205 colon it was 30.8 µM; in the experiment with U251 CNS, 56.9 µM.
As to `Cc1cc(NS(=O)(=O)c2ccc(Nc3c4ccccc4nc4c(C(=O)NCCN(C)C)cccc34)cc2)no1`, the TGI is 13 µM in the experiment on SNB-19 CNS; greater than 100 µM with OVCAR-5 ovarian; 6.57 µM in the experiment on HOP-62 NSCLC; greater than 100 µM with SW-620 colon; 22.1 µM with IGROV1 ovarian; greater than 100 µM in the experiment on TK-10 renal. The TGI in the experiment on COLO 205 colon and in the experiment with U251 CNS was greater than 100 µM in each case.
Take `O=C1CC2C(=O)N(Cc3ccccc3)C1C=C2S(=O)(=O)c1ccccc1` (configuration not stated): the TGI in the experiment with SNB-19 CNS, with HOP-62 NSCLC, with SW-620 colon, in the experiment on IGROV1 ovarian, in the experiment on TK-10 renal and in the experiment on MALME-3M melanoma was greater than 100 µM throughout. Moreover, the TGI with COLO 205 colon and in the experiment with U251 CNS was greater than 100 µM each time.
With `COc1cc(C)c2c(c1C)OC(=O)c1c(C)c(Cl)c(O)c(C=O)c1O2`, the TGI was greater than 100 µM in the experiment with SNB-19 CNS; 81.8 µM with OVCAR-5 ovarian; 47 µM with HOP-62 NSCLC; greater than 100 µM in the experiment with SW-620 colon; 72.7 µM in the experiment with IGROV1 ovarian; greater than 100 µM in the experiment with TK-10 renal. Besides, the TGI with MALME-3M melanoma was 42.3 µM; in the experiment with COLO 205 colon, 76.7 µM.
`COC(=O)/C(C=O)=C/Sc1ccccc1`: the TGI with SNB-19 CNS is greater than 100 µM; in the experiment on OVCAR-5 ovarian, 93.8 µM; in the experiment with HOP-62 NSCLC it was greater than 100 µM; with SW-620 colon it was greater than 100 µM; in the experiment with IGROV1 ovarian it was 28.8 µM; in the experiment on TK-10 renal, greater than 100 µM. Besides, the TGI with COLO 205 colon came out at 42.9 µM; in the experiment with U251 CNS, 42.2 µM.
Consider `Nc1ccn(C2(CO)C=C(CO)C(O)C2O)c(=O)n1` (configuration not stated), for which the TGI in the experiment with SNB-19 CNS, with HOP-62 NSCLC, in the experiment with SW-620 colon, in the experiment on IGROV1 ovarian, with TK-10 renal and with MALME-3M melanoma was greater than 25.8 µM each time. The TGI with COLO 205 colon and in the experiment with U251 CNS was greater than 25.8 µM in each case.
`COc1ccc(-c2oc3cc(O)c(OC)c(O)c3c(=O)c2OC)cc1O`: the GI50 in the experiment on SNB-19 CNS was 0.189 µM; in the experiment on HOP-62 NSCLC, 0.271 µM; in the experiment on SW-620 colon it was 0.0485 µM; with TK-10 renal, 21.1 µM; in the experiment on COLO 205 colon it was 5.85 µM; in the experiment on U251 CNS, 0.0708 µM. In addition, the TGI was greater than 100 µM with SNB-19 CNS; greater than 100 µM in the experiment with HOP-62 NSCLC; greater than 100 µM in the experiment on SW-620 colon; greater than 100 µM in the experiment on TK-10 renal; 28.8 µM with COLO 205 colon; greater than 100 µM in the experiment on U251 CNS.
